Experimental findings from article PMC8179433, “Rational designing of glyco-nanovehicles to target cellular heterogeneity” (Chemical Science, 2021) are described below.

By Kd is commonly meant the constant that tells how readily two partners part at equilibrium. A high value points to a looser complex.

For test [1], the target named is T1, HB-EGF (Homo sapiens, UniProt Q99075).
T1 construct: gene HBEGF
Description: SPR; also competition ELISA against immobilized heparin (IC50 =[…]). The test is classed as binding.

Test [2] has as its target T1, HB-EGF. The description is as above. The test is classed as binding. The source holds these as a separate data set.

Where two headings read alike, the source gives them in different places.

T1 sequence (Q99075 63-148): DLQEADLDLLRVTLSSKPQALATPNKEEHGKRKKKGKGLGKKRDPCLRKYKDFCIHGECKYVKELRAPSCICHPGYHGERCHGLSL

At HB-EGF [1], `CC(=O)N[C@H]1[C@@H](O[C@H]2[C@H](O)[C@@H](O)[C@H](OCCCN)O[C@H]2C(=O)O)O[C@H](COS(=O)(=O)O)[C@@H](O[C@@H]2O[C@@H](C(=O)O)[C@@H](O[C@H]3O[C@H](COS(=O)(=O)O)[C@@H](O)[C@H](O)[C@H]3NC(C)=O)[C@H](O)[C@H]2O)[C@@H]1O` [compound 7, 6-O-S HS tetrasaccharide (7)] displayed a Kd of 11.1 µM. This counts as double-digit micromolar. `CC(=O)N[C@H]1[C@@H](O[C@H]2[C@H](O)[C@@H](O)[C@H](OCCCN)O[C@H]2C(=O)O)O[C@H](COP(=O)(O)O)[C@@H](O[C@@H]2O[C@@H](C(=O)O)[C@@H](O[C@H]3O[C@H](COP(=O)(O)O)[C@@H](O)[C@H](O)[C@H]3NC(C)=O)[C@H](O)[C@H]2O)[C@@H]1O` [compound 8, 6-O-phosphated HS tetrasaccharide (8)] had a Kd at HB-EGF [2] of 11.1 µM.
